In brackets after ≈: the same amount, converted by molar mass.
Assays:
C. albicans 90028 = experiment: Broth microdilution susceptibility testing (CLSI M27-A3); type: cell-based, Candida albicans; details: Candida albicans, 90028, read-out: MIC, C. albicans 90028
Excerpt: (§1) C. neoformans strains H99, DUMC 118.00, and DUMC 158.03 and C. gattii strains R272 and RSA-MW-3515 were obtained from Duke University. C. albicans 90028, A. fumigatus MYA3626, C. neoformans 14116, C. neoformans 76484, and the pathogenic Cryptococcus reference strains panel (ATCC MP-11) were obtained from the American Type Culture Collection (ATCC; Manassas, VA, USA). The ATCC MP-11 panel consists of strains representing eight molecular types and three subtypes of C. neoformans and C. gattii.
(§2) To establish the antimicrobial activity of the APX001A analogs, broth microdilution susceptibility testing was performed according to Clinical and Laboratory Standards Institute (CLSI) guidelines M27-A3 ([47]) for yeasts and M38-A2 for molds ([48]). APX001A and analogs were first diluted in DMSO to obtain intermediate dilutions. These were further diluted in microtiter plates to obtain a final concentration of 2 to 0.002 μg/ml. One microliter of DMSO was added to the no-drug control wells. The solutions were mixed on a plate shaker for 10 min, and the plates were incubated at 35°C for 40 to 48 h (C. albicans, A. fumigatus) and 72 h (C. neoformans). The minimum concentration that led to a 50% reduction in fungal growth compared to that for the control (determined with the aid of a reading mirror) was determined as the MIC for C. albicans and C. neoformans. The minimum concentration that led to the shortening of hyphae compared to the hyphal growth in DMSO control wells was determined as the minimum effective concentration (MEC) for A. fumigatus (as read for the echinocandins). The use of the MIC and MEC endpoints for APX001A (formerly E1210) against yeasts and molds, respectively, has been described previously ([19][–][21]). For the cryptococcal synergy studies, APX001A and APX2020 MIC values were read at 50% inhibition.

A. fumigatus MYA3626 = experiment: Broth microdilution susceptibility testing for molds (CLSI M38-A2); type: cell-based; details: Aspergillus fumigatus, MYA3626, read-out: MIC or MEC for A. fumigatus MYA3626
Excerpt: as §1, §2

C. neoformans = tested on: C. neoformans; parameters: method as in PMID 15078612; details: U.S. isolates; cited from earlier work

Row | SMILES | MIC (C. albicans 90028) [µg/mL] | MIC (A. fumigatus MYA3626) [µg/mL] | MIC90 (C. neoformans) [µg/mL]
1 | CC[C@H](C)C[C@H](C)CCCCCCCCC(=O)N[C@H]1C[C@@H](O)[C@@H](NCCN)NC(=O)[C@@H]2[C@@H](O)CCN2C(=O)[C@H]([C@H](O)CCN)NC(=O)[C@H]([C@H](O)[C@@H](O)c2ccc(O)cc2)NC(=O)[C@@H]2C[C@@H](O)CN2C(=O)[C@H]([C@@H](C)O)NC1=O [CAS, caspofungin, reference compound] | 0.5 | 0.25 | 
2 | Nc1[nH]c(=O)ncc1F [flucytosine] |  |  | 8 (≈ 62 µM)
3 | CCC(C)n1ncn(-c2ccc(N3CCN(c4ccc(OCC5COC(Cn6cncn6)(c6ccc(Cl)cc6Cl)O5)cc4)CC3)cc2)c1=O (centres unmarked) [itraconazole] |  |  | 0.125 (≈ 0.177 µM)
4 | CC(=O)N1CCN(c2ccc(OCC3COC(Cn4ccnc4)(c4ccc(Cl)cc4Cl)O3)cc2)CC1 (centres unmarked) [ketoconazole] |  |  | 0.06 (≈ 0.113 µM)
